Laboratory results: ChEMBL document CHEMBL6074683, “Design, synthesis and investigation of biological activity and mechanism of fluoroaryl-substituted derivatives at the FL118 position 7” (Eur J Med Chem, 2025)
Activity calls are given as the source filed them. The rule behind the calls is not given here.

Assays:
[1] = Toxicity in SCID mouse assessed as change in body weight at 2 to 15 mg/kg, ip administered weekly for 4 weeks; format: organism-based; conditions: in vivo, 672 h, dose 2-15 mg/kg
HCT-116 [2] = experiment: Downregulation of survivin protein level in human HCT-116 cells at 50 to 100 nM incubated for 72 hrs by Western blotting assay; format: functional, cell-based; conditions: dose 50-100 nM
PDX27454 [3] = experiment: Antitumor activity against human PDX27454 cells xenografted in SCID mouse at 2 to 15 mg/kg, ip administered weekly for 4 weeks; format: functional, organism-based; conditions: dose 2-15 mg/kg
HCT-116 [4] = experiment: Downregulation of XIAP protein level in human HCT-116 cells at 50 to 100 nM incubated for 72 hrs by Western blotting assay; format: functional, cell-based; conditions: dose 50-100 nM
[5] = target: T1, DNA topoisomerase 1 (Homo sapiens) (UniProt P11387); experiment: Inhibition of topoisomerase 1 (unknown origin) assessed as reduction in nicking of supercoiled DNA at 0.05 to 0.5 uM using pBR322 DNA as substrate by ethidium bromide staining based agarose gel electrophoresis method; conditions: dose 0.05-0.5 µM
T1 sequence (whole entry): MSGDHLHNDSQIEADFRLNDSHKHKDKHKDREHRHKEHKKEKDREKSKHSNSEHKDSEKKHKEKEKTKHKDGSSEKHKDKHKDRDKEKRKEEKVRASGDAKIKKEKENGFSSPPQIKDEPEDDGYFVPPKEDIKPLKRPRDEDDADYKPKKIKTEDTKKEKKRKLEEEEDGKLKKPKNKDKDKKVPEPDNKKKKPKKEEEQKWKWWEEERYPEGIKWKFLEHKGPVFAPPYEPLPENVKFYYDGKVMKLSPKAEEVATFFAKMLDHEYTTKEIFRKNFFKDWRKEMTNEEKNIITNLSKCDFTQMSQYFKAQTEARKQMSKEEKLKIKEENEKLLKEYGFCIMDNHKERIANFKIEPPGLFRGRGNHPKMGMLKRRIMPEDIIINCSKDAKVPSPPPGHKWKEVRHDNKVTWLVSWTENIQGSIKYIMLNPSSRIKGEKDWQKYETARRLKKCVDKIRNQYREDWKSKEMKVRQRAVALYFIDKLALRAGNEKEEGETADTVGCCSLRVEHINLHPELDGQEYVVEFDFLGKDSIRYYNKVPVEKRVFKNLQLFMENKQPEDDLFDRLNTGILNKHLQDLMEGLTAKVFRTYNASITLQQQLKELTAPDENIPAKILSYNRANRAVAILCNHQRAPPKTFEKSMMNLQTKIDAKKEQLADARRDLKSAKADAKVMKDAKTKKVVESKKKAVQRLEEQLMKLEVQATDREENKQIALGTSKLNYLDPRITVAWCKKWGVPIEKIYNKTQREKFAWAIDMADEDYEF

HCT-116 [6] = experiment: Upregulation of Bax protein level in human HCT-116 cells incubated for 72 hrs by Western blotting assay; format: functional, cell-based; conditions: dose 50-100 nM
HCT-116 [7] = experiment: Downregulation of Bcl-2 protein level in human HCT-116 cells at 50 to 100 nM incubated for 72 hrs by Western blotting assay; format: functional, cell-based; conditions: dose 50-100 nM
HCT-116 [8] = experiment: Induction of apoptosis in human HCT-116 cells assessed as late apoptotic cells at 50 nM incubated for 48 hrs by PI/Annexin V-FITC staining based flow cytometry assay (reference value: 4.02%); format: functional
HCT-116 [9] = experiment: Induction of apoptosis in human HCT-116 cells assessed as early apoptotic cells at 10 nM incubated for 48 hrs by PI/Annexin V-FITC staining based flow cytometry assay (reference value: 0.27%); format: functional
HCT-116 [10] = experiment: Induction of apoptosis in human HCT-116 cells assessed as viable cells at 2.5 nM incubated for 48 hrs by PI/Annexin V-FITC staining based flow cytometry assay (reference value: 93%); format: functional; conditions: read-out: Activity
HCT-116 [11] = experiment: Induction of apoptosis in human HCT-116 cells assessed as viable cells at 50 nM incubated for 48 hrs by PI/Annexin V-FITC staining based flow cytometry assay (reference value: 93%); format: functional; conditions: read-out: Activity
PDX27454 [12] = experiment: Antitumor activity against human PDX27454 cells xenografted in SCID mouse at 15 mg/kg, ip administered weekly for 4 weeks; format: functional, organism-based
HCT-116 [13] = experiment: Induction of apoptosis in human HCT-116 cells assessed as late apoptotic cells at 10 nM incubated for 48 hrs by PI/Annexin V-FITC staining based flow cytometry assay (reference value: 4.02%); format: functional
HCT-116 [14] = experiment: Induction of ROS generation in human HCT-116 cells incubated for 72 hrs by DCFH-DA staining based assay; format: functional, cell-based; conditions: dose 5-100 nM
HCT-116 [15] = experiment: Induction of apoptosis in human HCT-116 cells assessed as early apoptotic cells at 50 nM incubated for 48 hrs by PI/Annexin V-FITC staining based flow cytometry assay (reference value: 0.27%); format: functional
HCT-116 [16] = experiment: Induction of apoptosis in human HCT-116 cells assessed as necrotic cells at 50 nM incubated for 48 hrs by PI/Annexin V-FITC staining based flow cytometry assay (reference value: 2.58%); format: functional
[17] = target: T1, DNA topoisomerase 1 (Homo sapiens); experiment: Inhibition of topoisomerase 1 (unknown origin) assessed as reduction in nicking of supercoiled DNA at 5 to 50 uM using pBR322 DNA as substrate by ethidium bromide staining based agarose gel electrophoresis method; conditions: dose 5-50 µM
HCT-116 [18] = experiment: Downregulation of DDX5 protein expression in human HCT-116 cells at 100 nM incubated upto 72 hrs by Western blotting assay; format: functional, cell-based
HCT-116 [19] = experiment: Induction of ROS generation in human HCT-116 cells incubated for 12 hrs by DCFH-DA staining based assay; format: functional, cell-based
HCT-116 [20] = experiment: Induction of apoptosis in human HCT-116 cells assessed as necrotic cells at 10 nM incubated for 48 hrs by PI/Annexin V-FITC staining based flow cytometry assay (reference value: 2.58%); format: functional
PDX27454 [21] = experiment: Antitumor activity against human PDX27454 cells xenografted in ip dosed SCID mouse administered weekly for 4 weeks and measured after 35 days; format: functional, organism-based; conditions: dose 2-15 mg/kg
HCT-116 [22] = experiment: Induction of apoptosis in human HCT-116 cells assessed as early apoptotic cells at 2.5 nM incubated for 48 hrs by PI/Annexin V-FITC staining based flow cytometry assay (reference value: 0.27%); format: functional
HCT-116 [23] = experiment: Induction of apoptosis in human HCT-116 cells assessed as viable cells at 10 nM incubated for 48 hrs by PI/Annexin V-FITC staining based flow cytometry assay (reference value: 93%); format: functional; conditions: read-out: Activity
HCT-116 [24] = experiment: Induction of apoptosis in human HCT-116 cells assessed as late apoptotic cells at 2.5 nM incubated for 48 hrs by PI/Annexin V-FITC staining based flow cytometry assay (reference value: 4.02%); format: functional
HCT-116 [25] = experiment: Upregulation of gammaH2AX protein level in human HCT-116 cells incubated for 72 hrs by Western blotting assay; format: functional, cell-based; conditions: dose 50-100 nM
HCT-116 [26] = experiment: Induction of apoptosis in human HCT-116 cells assessed as necrotic cells at 2.5 nM incubated for 48 hrs by PI/Annexin V-FITC staining based flow cytometry assay (reference value: 2.58%); format: functional
[27] = target: T1, DNA topoisomerase 1 (Homo sapiens); experiment: Inhibition of topoisomerase 1 (unknown origin) using pBR322 DNA as substrate in presence of DDX5 by ethidium bromide staining based agarose gel electrophoresis method
HCT-116 [28] = experiment: Inhibition of colony formation in human HCT-116 cells incubated for 12 hrs by crystal violet staining based assay; format: functional, cell-based; conditions: dose 5-25 nM
[29] = target: T1, DNA topoisomerase 1 (Homo sapiens); experiment: Inhibition of topoisomerase 1 (unknown origin) using pBR322 DNA as substrate by ethidium bromide staining based agarose gel electrophoresis method
HCT-116 [30] = experiment: Cytotoxicity against human HCT-116 cells incubated for 72 hrs by MTT assay; format: functional, cell-based; conditions: HCT-116, 72 h
HepG2 = experiment: Cytotoxicity against human HepG2 cells incubated for 72 hrs by MTT assay; format: functional, cell-based; conditions: HepG2, 72 h
A549 = experiment: Cytotoxicity against human A549 cells incubated for 72 hrs by MTT assay; format: functional, cell-based; conditions: A549, 72 h
HeLa = experiment: Cytotoxicity against human HeLa cells incubated for 72 hrs by MTT assay; format: functional, cell-based

CC[C@@]1(O)C(=O)OCc2c1cc1n(c2=O)Cc2c-1nc1cc3c(cc1c2-c1ccc(F)c(OC)c1)OCO3
Activity [1]: Non-toxic
Activity (HCT-116 [2]): Active
Activity (PDX27454 [3]): Active
Activity (HCT-116 [4]): Active
Activity [5]: inactive
Activity (HCT-116 [6]): Active
Activity (HCT-116 [7]): Active
Activity (HCT-116 [8]): 25.9%
Activity (HCT-116 [9]): 0.5%
viability at 0.0025 µM (HCT-116 [10]): 84.4%
viability at 0.05 µM (HCT-116 [11]): 67.5%
Activity (PDX27454 [12]): Active
Activity (HCT-116 [13]): 16.3%
Activity (HCT-116 [14]): Dose-dependent-effect
Activity (HCT-116 [15]): 0.78%
Activity (HCT-116 [16]): 5.94%
Activity [17]: Active
Activity (HCT-116 [18]): inactive
Activity (HCT-116 [19]): inactive
Activity (HCT-116 [20]): 4.17%
Activity (PDX27454 [21]): Dose-dependent-effect
Activity (HCT-116 [22]): 0.64%
viability at 0.01 µM (HCT-116 [23]): 79%
Activity (HCT-116 [24]): 10.9%
Activity (HCT-116 [25]): Active
Activity (HCT-116 [26]): 4.13%
Activity [27]: Active
inhibition (HCT-116 [28]): Dose-dependent-effect
inhibition [29]: Active

CC[C@@]1(O)C(=O)OCc2c1cc1n(c2=O)Cc2c-1nc1cc3c(cc1c2-c1ccc(F)cc1)OCO3
IC50 (HCT-116 [30]): 32.7 nM
IC50 (HepG2): 46.3 nM
IC50 (A549): 19.8 nM
IC50 (HeLa): 11.1 nM

CC[C@@]1(O)C(=O)OCc2c1cc1n(c2=O)Cc2c-1nc1cc3c(cc1c2-c1cc(F)cc(F)c1)OCO3
Activity [1]: Non-toxic
Activity (PDX27454 [3]): Active
IC50 (HCT-116 [30]): 48 nM
IC50 (HepG2): 41.4 nM
IC50 (A549): 49.5 nM
IC50 (HeLa): 35.6 nM

CC[C@@]1(O)C(=O)OCc2c1cc1n(c2=O)Cc2c-1nc1cc3c(cc1c2-c1ccc(F)c(C)c1)OCO3
IC50 (HCT-116 [30]): 25.5 nM
IC50 (HepG2): 36.7 nM
IC50 (A549): 29.4 nM
IC50 (HeLa): 36.6 nM

CC[C@@]1(O)C(=O)OCc2c1cc1n(c2=O)Cc2c-1nc1cc3c(cc1c2-c1cccc(F)c1)OCO3
IC50 (HCT-116 [30]): 150 nM
IC50 (HepG2): 155 nM
IC50 (A549): 40 nM
IC50 (HeLa): 34.7 nM

CCOc1ccc(-c2c3c(nc4cc5c(cc24)OCO5)-c2cc4c(c(=O)n2C3)COC(=O)[C@]4(O)CC)cc1F
IC50 (HCT-116 [30]): 399 nM
IC50 (HepG2): 206 nM
IC50 (A549): 352 nM
IC50 (HeLa): 42.2 nM

CC[C@@]1(O)C(=O)OCc2c1cc1n(c2=O)Cc2c-1nc1cc3c(cc1c2-c1cc(F)cc(OC)c1)OCO3
IC50 (HCT-116 [30]): 66.9 nM
IC50 (HepG2): 48.5 nM
IC50 (A549): 15.5 nM
IC50 (HeLa): 124 nM

CC[C@@]1(O)C(=O)OCc2c1cc1n(c2=O)Cc2c-1nc1cc3c(cc1c2-c1cccc(OC(F)(F)F)c1)OCO3
IC50 (HCT-116 [30]): 14.6 nM
IC50 (HepG2): 16.8 nM
IC50 (A549): 26.4 nM
IC50 (HeLa): 12.8 nM
